Laboratory results taken from US7855200B2, “Method for treatment of gastric ulcers and ulcers induced by aspirin” (Council of Scientific and Industrial Research, priority 2006, dated 2010).

What was measured:
[1] = test system: acetyl salicylic acid induced gastric lesions; assay: Acetyl salicylic acid (aspirin) induced gastric ulcer; assay type: in vivo, albino rats; parameters: Ulcer index Mean(SE): scale not given here; conditions: rats, aspirin 200 mg/kg
In short: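 Rats in groups of 6 were dosed orally once a day for five days with test compounds suspended in 1% Tween 80. A 1% Tween 80 control group and a ranitidine 50 mg/kg group were included. Aspirin at 200 mg/kg was given orally 30 min after each dose. After a 24 hour fast, the rats were killed by cervical dislocation. Stomachs were opened along the greater curvature, rinsed with lukewarm saline, examined under a dissecting microscope and scored for ulcer index.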

[2] = test system: ethanol induced gastric ulcers; assay: Ethanol induced ulcers; assay type: in vivo, albino rats; conditions: rats, ethanol challenge; for Acidity Total mEg / Gastric content / pH: 4 hours after pylorus ligation
In short: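 Rats in groups of 6, fasted 48 h, given Tween 80 (1%) vehicle, reference drugs, or test compounds at 25 mg/kg; lesions induced 1 h after ethanol challenge. Pylorus ligated under ether; 4 h later gastric contents centrifuged and total acid titrated with 0.01N NaOH.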

[3] = 5 mg/kg per orally daily for five days
[4] = 10 mg/kg per orally daily for five days
[5] = 15 mg/kg per orally daily for five days
[6] = 25 mg/kg per orally daily for five days
[7] = 50 mg/kg per orally daily for five days

SMILES: COC(=O)C1OC(Oc2cc3oc(-c4ccccc4)cc(=O)c3cc2OC)C(O)C(O)C1O (stereo not shown) [OA-5, 3,4,5-trihydroxy-6-(6-methoxy-4-oxo-2-phenyl-4-H-chromen-7-yoloxy) tetrahydro-pyran-2-carboxylicacid methyl ester]
- Inhibition % [1, 3]: 18.75%
- Ulcer index Mean(SE) [1, 3]: 36.66
- Inhibition % [1, 4]: 40.98%
- Ulcer index Mean(SE) [1, 4]: 26.66
- Inhibition % [1, 5]: 40.98%
- Ulcer index Mean(SE) [1, 5]: 26.66
- Inhibition % [1, 6]: 74.55%
- Ulcer index Mean(SE) [1, 6]: 11.06
- Inhibition % [1, 7]: 77.84%
- Ulcer index Mean(SE) [1, 7]: 10.00
- Inhibition % ([2]; 5 mg/kg): 30.01%
- Ulcer index Mean(SE) ([2]; 5 mg/kg): 46.66 (±0.80)
- Acidity Total mEg ([2]; 5 mg/kg): 42.66 (±3.95) m Eg
- Gastric content ([2]; 5 mg/kg): 4.0 (±0.45)
- pH ([2]; 5 mg/kg): 3.5 (±0.40)
- Inhibition % ([2]; 10 mg/kg): 35.00%
- Ulcer index Mean(SE) ([2]; 10 mg/kg): 43.33 (±5.40)
- Acidity Total mEg ([2]; 10 mg/kg): 31.33 (±1.36) m Eg
- Gastric content ([2]; 10 mg/kg): 4.2 (±0.07)
- Inhibition % ([2]; 15 mg/kg): 60.61%
- Ulcer index Mean(SE) ([2]; 15 mg/kg): 26.66 (±4.71)
- Acidity Total mEg ([2]; 15 mg/kg): 29.66 (±1.36) m Eg
- Gastric content ([2]; 15 mg/kg): 4.0 (±0.82)
- pH ([2]; 15 mg/kg): 4.5 (±0.13)
- Inhibition % ([2]; 25 mg/kg): 82.50%
- Ulcer index Mean(SE) ([2]; 25 mg/kg): 11.66 (±4.47)
- Acidity Total mEg ([2]; 25 mg/kg): 12.40 (±2.30) mEg
- Gastric content ([2]; 25 mg/kg): 5.5 (±0.30)
- pH ([2]; 25 mg/kg): 6.81 (±0.26)
- Inhibition % ([2]; 50 mg/kg): 85.00%
- Ulcer index Mean(SE) ([2]; 50 mg/kg): 10.00 (±6.23)
- Acidity Total mEg ([2]; 50 mg/kg): 18.25 (±7.10) mEg
- Gastric content ([2]; 50 mg/kg): 7.4 (±0.72)
- pH ([2]; 50 mg/kg): 4.95 (±0.43)
